What follows are compounds tested against T1, GPR6 receptor expressed in CHO-K1 cells (Homo sapiens, UniProt P46095) (assay: In vitro inhibition of cAMP (EC50), cell-based HTRF cAMP assay). Details: inhibition of constitutive cAMP activity of GPR6 in CHO-K1 cells.
T1 construct: expressed in transfected cells
Procedure, shortened: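 Cellular cAMP measured by Lance Ultra HTRF (Eu-cAMP tracer, ULight anti-cAMP), with EC50 fitted by four-parameter logistic. Test compounds sat on cells 45 min, 37 °C, in pH 7.4 Ringer's with 300 μM IBMX and 0.5% BSA; GPR6 in CHO-K1 induced beforehand by doxycycline, 2 μg/mL, 20 h.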

T1 sequence (P46095 whole entry): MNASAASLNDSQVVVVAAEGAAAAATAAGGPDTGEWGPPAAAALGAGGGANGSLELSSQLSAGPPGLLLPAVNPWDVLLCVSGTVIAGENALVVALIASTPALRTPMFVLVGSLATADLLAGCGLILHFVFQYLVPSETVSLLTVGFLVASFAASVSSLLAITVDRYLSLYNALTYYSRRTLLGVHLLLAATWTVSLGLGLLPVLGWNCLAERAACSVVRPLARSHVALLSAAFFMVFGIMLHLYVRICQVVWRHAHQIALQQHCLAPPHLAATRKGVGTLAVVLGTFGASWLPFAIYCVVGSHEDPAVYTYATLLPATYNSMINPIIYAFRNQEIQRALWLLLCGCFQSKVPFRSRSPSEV

Structure (SMILES)	pEC50, in vitro inhibition of cAMP
COc1ccnc(C(=O)Nc2cc(C#N)ccc2N2CCC(Oc3ccc(F)cc3F)CC2)n1 [Example 138, N-(5-cyano-2-(4-(2,4-difluorophenoxy)piperidin-1-yl)phenyl)-4-methoxypyrimidine-2-carboxamide]	<4.5
Cc1nccnc1C(=O)Nc1cc(C#N)ccc1N1CCC(Oc2ccc(F)cc2F)CC1 [Example 115, N-(5-cyano-2-(4-(2,4-difluorophenoxy)piperidin-1-yl)phenyl)-3-methylpyrazine-2-carboxamide]	6.6
COc1cc(F)cc(CN2CCN(c3ncc(C#N)cc3NC(=O)c3cn(C)nc3OC)CC2)c1 [Example 159, N-(5-cyano-2-(4-(3-fluoro-5-methoxybenzyl)piperazin-1-yl)pyridin-3-yl)-3-methoxy-1-methyl-1H-pyrazole-4-carboxamide]	6.0
Cc1ccc(F)c(C(=O)Nc2cc(C#N)cnc2N2CCC(Oc3ccc(F)cc3F)CC2)n1 [Example 57, N-(5-cyano-2-(4-(2,4-difluorophenoxy)piperidin-1-yl)pyridin-3-yl)-3-fluoro-6-methylpicolinamide]	7.3
N#Cc1ccc(N2CCC(Oc3ccc(F)cc3F)CC2)c(NC(=O)c2cnsn2)c1 [Example 134, N-(5-cyano-2-(4-(2,4-difluorophenoxy)piperidin-1-yl)phenyl)-1,2,5-thiadiazole-3-carboxamide]	5.8
O=C(Nc1ccccc1N1CCN(C(=O)c2ccc(Cl)cc2)CC1)c1ncccn1 [Example 258, N-(2-(4-(4-chlorobenzoyl)piperazin-1-yl)phenyl)pyrimidine-2-carboxamide]	4.9
COc1ncccc1C(=O)Nc1cc(C#N)ccc1N1CCN(Cc2c(F)cccc2Cl)CC1 [Example 71]	6.5
COc1ccc(C(F)(F)F)cc1C(=O)Nc1cc(C#N)ccc1N1CCC(Oc2ccc(F)cc2F)CC1 [Example 208, N-(5-cyano-2-(4-(2,4-difluorophenoxy)piperidin-1-yl)phenyl)-2-methoxy-5-(trifluoromethyl)benzamide]	6.9
Cn1cccc(C(=O)Nc2cc(C#N)ccc2N2CCC(Oc3ncc(F)cc3F)CC2)c1=O [Example 293, N-(5-cyano-2-(4-((3,5-difluoropyridin-2-yl)oxy)piperidin-1-yl)phenyl)-1-methyl-2-oxo-1,2-dihydropyridine-3-carboxamide]	6.6
Cn1cccc(C(=O)Nc2cc(C#N)ccc2N2CCC(Oc3ccc(F)c(F)c3)CC2)c1=O [Example 16]	6.6
COc1ncccc1C(=O)Nc1cc(C(=O)N(C)C)cnc1N1CCC(Oc2ccc(F)cc2F)CC1 [Example 148, 6-(4-(2,4-difluorophenoxy)piperidin-1-yl)-5-(2-methoxynicotinamido)-N,N-dimethylnicotinamide]	7.2
Cc1ccc(C(=O)Nc2cc(C#N)ccc2N2CCC(Oc3ccc(F)cc3F)CC2)nc1 [Example 124, N-(5-cyano-2-(4-(2,4-difluorophenoxy)piperidin-1-yl)phenyl)-5-methylpicolinamide]	6.9
Cc1csc(C(=O)Nc2cc(C#N)ccc2N2CCC(Oc3ccc(F)cc3F)CC2)n1 [Example 51, N-(5-cyano-2-(4-(2,4-difluorophenoxy)piperidin-1-yl)phenyl)-4-methylthiazole-2-carboxamide]	6.8
COc1cnccc1C(=O)Nc1cc(C#N)ccc1N1CCC(Oc2ccc(F)cc2F)CC1 [Example 25, N-(5-cyano-2-(4-(2,4-difluorophenoxy)piperidin-1-yl)phenyl)-3-methoxyisonicotinamide]	7.0
COc1nn(C)cc1C(=O)Nc1cc(C#N)cnc1N1CCN(Cc2cccc(OC(F)F)c2)CC1 [Example 164, N-(5-cyano-2-(4-(3-(difluoromethoxy)benzyl)piperazin-1-yl)pyridin-3-yl)-3-methoxy-1-methyl-1H-pyrazole-4-carboxamide]	6.5
COc1cnc(C(=O)Nc2cnc(C)cc2N2CCC(Oc3ccc(F)cc3F)CC2)cn1 [Example 142, N-(4-(4-(2,4-difluorophenoxy)piperidin-1-yl)-6-methylpyridin-3-yl)-5-methoxypyrazine-2-carboxamide]	6.2
COc1cc(Br)ccc1C(=O)Nc1cc(C#N)ccc1N1CCC(Oc2ccc(F)cc2F)CC1 [Example 226, 4-bromo-N-(5-cyano-2-(4-(2,4-difluorophenoxy)piperidin-1-yl)phenyl)-2-methoxybenzamide]	7.0
N#Cc1ccc(N2CCC(Oc3ccc(F)cc3F)CC2)c(NC(=O)c2csnn2)c1 [Example 116, N-(5-cyano-2-(4-(2,4-difluorophenoxy)piperidin-1-yl)phenyl)-1,2,3-thiadiazole-4-carboxamide]	5.9

Structure (SMILES)	pEC50, in vitro inhibition of cAMP
COc1ncccc1C(=O)Nc1cc(C#N)ccc1N1CCN(C(C)c2ccc(F)cc2)CC1 (stereo not drawn) [Example 288]	6.0
COc1nn(C)cc1C(=O)Nc1cc(C#N)cnc1N1CCN(Cc2c(F)cc(F)c(OC)c2F)CC1 [Example 171, N-(5-cyano-2-(4-(2,4,6-trifluoro-3-methoxybenzyl)piperazin-1-yl)pyridin-3-yl)-3-methoxy-1-methyl-1H-pyrazole-4-carboxamide]	6.6
COc1nccnc1C(=O)Nc1cc(C#N)ccc1N1CCC(Oc2ccc(F)cc2F)CC1 [Example 94, N-(5-cyano-2-(4-(2,4-difluorophenoxy)piperidin-1-yl)phenyl)-3-methoxypyrazine-2-carboxamide]	<5.7
Cn1cccc(C(=O)Nc2ccc(S(C)(=O)=O)cc2N2CCC(Oc3ccc(F)cc3F)CC2)c1=O [Example 30, N-(2-(4-(2,4-difluorophenoxy)piperidin-1-yl)-4-(methylsulfonyl)phenyl)-1-methyl-2-oxo-1,2-dihydropyridine-3-carboxamide]	7.2
COc1ncccc1C(=O)Nc1cc(C#N)ccc1N1CCN(S(=O)(=O)c2ccc(F)cc2)CC1 [Example 287, N-(5-cyano-2-(4-((4-fluorophenyl)sulfonyl)piperazin-1-yl)phenyl)-2-methoxynicotinamide]	6.2
COc1nc(C)ccc1C(=O)Nc1cnc(C)nc1N1CCC(Oc2ccc(F)cc2F)CC1 [Example 74, N-(4-(4-(2,4-difluorophenoxy)piperidin-1-yl)-2-methylpyrimidin-5-yl)-2-methoxy-6-methylnicotinamide]	7.1
COc1nc(C)ccc1C(=O)Nc1cnc(C#N)nc1N1CCC(Oc2ccc(F)cc2F)CC1 [Example 280, N-(2-cyano-4-(4-(2,4-difluorophenoxy)piperidin-1-yl)pyrimidin-5-yl)-2-methoxy-6-methylnicotinamide]	7.1
Cc1ccc(SC2CCN(c3ncc(C#N)cc3NC(=O)c3ccccn3)CC2)cc1 [Example 69, N-(5-cyano-2-(4-(p-tolylthio)piperidin-1-yl)pyridin-3-yl)picolinamide]	6.7
[2H]C([2H])([2H])N(C(=O)c1cc(N2CCC(Oc3ccc(F)cc3F)CC2)c(NC(=O)c2cccnc2OC)cn1)C([2H])([2H])[2H] [Example 22, 4-(4-(2,4-difluorophenoxy)piperidin-1-yl)-5-(2-methoxynicotinamido)-N,N-bis(methyl-d3)picolinamide]	7.1
COc1ncccc1C(=O)Nc1cc(C#N)ccc1N1CCN(C(=O)c2ccc(F)cc2F)CC1 [Example 93, N-(5-cyano-2-(4-(2,4-difluorobenzoyl)piperazin-1-yl)phenyl)-2-methoxynicotinamide]	6.3
N#Cc1ccc(N2CCC(Oc3ccc(F)cc3F)CC2)c(NC(=O)c2cocn2)c1 [Example 122, N-(5-cyano-2-(4-(2,4-difluorophenoxy)piperidin-1-yl)phenyl)oxazole-4-carboxamide]	6.1
COc1nn(C)cc1C(=O)Nc1cc(C#N)ncc1N1CCN(Cc2ccc(F)c(F)c2F)CC1 [Example 266, N-(2-cyano-5-(4-(2,3,4-trifluorobenzyl)piperazin-1-yl)pyridin-4-yl)-3-methoxy-1-methyl-1H-pyrazole-4-carboxamide]	6.8
COc1ccc(N2CCOCC2)cc1C(=O)Nc1cc(C#N)ccc1N1CCC(Oc2ccc(F)cc2F)CC1 [Example 215, N-(5-cyano-2-(4-(2,4-difluorophenoxy)piperidin-1-yl)phenyl)-2-methoxy-5-morpholinobenzamide]	5.5
COc1nc(Cl)ccc1C(=O)Nc1cc(C#N)ccc1N1CCC(Oc2ccc(F)cc2F)CC1 [Example 191, 6-chloro-N-(5-cyano-2-(4-(2,4-difluorophenoxy)piperidin-1-yl)phenyl)-2-methoxynicotinamide]	6.8
COc1nn(C)cc1C(=O)Nc1cc(C)cnc1N1CCN(Cc2ccc(C#N)c(F)c2)CC1 [Example 102, N-(2-(4-(4-cyano-3-fluorobenzyl)piperazin-1-yl)-5-methylpyridin-3-yl)-3-methoxy-1-methyl-1H-pyrazole-4-carboxamide]	6.1
COc1ncccc1C(=O)Nc1cc(S(C)(=O)=O)ccc1N1CCN(C(=O)c2ccc(F)cc2C)CC1 [Example 95, N-(2-(4-(4-fluoro-2-methylbenzoyl)piperazin-1-yl)-5-(methylsulfonyl)phenyl)-2-methoxynicotinamide]	6.2
COc1ncccc1C(=O)Nc1cc(C(=O)N(C)C)ccc1N1CCC(Oc2ccc(F)cc2F)CC1 [Example 265]	6.7
Cc1ccc(NC(=O)c2cnn(C)c2O)c(N2CCN(Cc3ccc(F)cc3)CC2)n1 [Example 104]	<5.7

— patent US11426397B2, “Piperidinyl- and piperazinyl-substituted heteroaromatic carboxamides as modulators of GPR6” (TAKEDA PHARMACEUTICAL COMPANY LIMITED, priority 2017, dated 2022)
